Measurements taken from PubChem BioAssay (NCI).
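Dose response: 5 concentrations. Exposure: 48 h. Format: 96-well plates. Endpoint: linear interpolation; highest concentration if not reached. At the GI50, growth is halved. TGI marks complete inhibition of growth.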

Key:
Assay in all cases: growth of human tumour cells (NCI), 48 h
[1] = system: SK-OV-3 ovarian
[2] = system: HOP-62 NSCLC
[3] = system: UACC-62 melanoma
[4] = system: RPMI-8226 leukemia
[5] = system: TK-10 renal
[6] = system: SN12C renal
[7] = system: HCT-15 colon
[8] = system: M14 melanoma
[9] = system: MOLT-4 leukemia
[10] = system: OVCAR-4 ovarian

SMILES: COC(=O)c1cc(-c2cc(OC)c(OC)c(OC)c2)[nH]c1N/N=C/c1c(Cl)cccc1Cl
- GI50 [1]: 3.07 µM
- TGI [1]: 13.3 µM
- GI50 [2]: 2.1 µM
- TGI [2]: 13 µM
- GI50 [3]: 1470 nM
- TGI [3]: 16.2 µM
- GI50 [4]: 1940 nM
- TGI [4]: > 34.4 µM
- GI50 [5]: 0.528 µM
- TGI [5]: 2.68 µM
- GI50 [6]: 3.3 µM
- TGI [6]: > 74.3 µM
- GI50 [7]: 16000 nM
- TGI [7]: > 100 µM
- GI50 [8]: 8600 nM
- TGI [8]: 40.1 µM
- GI50 [9]: 9.27 µM
- TGI [9]: > 56.3 µM
- GI50 [10]: 666 nM
- TGI [10]: 2.68 µM

SMILES: COc1ccc(C(=O)/C=C/c2c(C(F)(F)F)nc3sccn23)cc1OC
- GI50 [1]: 3.41 µM
- TGI [1]: > 100 µM
- GI50 [2]: 6 µM
- TGI [2]: 43 µM
- GI50 [3]: 4850 nM
- TGI [3]: > 100 µM
- GI50 [4]: 1620 nM
- TGI [4]: > 100 µM
- GI50 [5]: 8.76 µM
- TGI [5]: > 100 µM
- GI50 [6]: 2.98 µM
- TGI [6]: > 100 µM
- GI50 [7]: 2540 nM
- TGI [7]: > 100 µM
- GI50 [8]: 2670 nM
- TGI [8]: > 100 µM
- GI50 [9]: 2.22 µM
- TGI [9]: > 100 µM
- GI50 [10]: 4080 nM
- TGI [10]: > 100 µM

SMILES: Cc1cc(NC(=O)NC(=O)c2ccccc2N)ccc1Oc1ncc(Br)cn1
- TGI [1]: 3.02 µM
- TGI [2]: 31.2 µM
- TGI [3]: 1.75 µM
- TGI [4]: > 100 µM
- TGI [5]: 35.1 µM
- TGI [6]: > 46.4 µM
- TGI [7]: 8.31 µM
- TGI [8]: > 31.2 µM
- TGI [9]: > 30.3 µM
- TGI [10]: > 75.9 µM

SMILES: [C-]#[O+].[C-]#[O+].[C-]#[O+].[C-]#[O+].[Ir].[Ir].[O-]c1ccc2ccccc2c1C=Nc1ccc(N=Cc2c([O-])ccc3ccccc23)cc1
- GI50 [1]: > 100 µM
- TGI [1]: > 100 µM
- GI50 [2]: > 100 µM
- TGI [2]: > 100 µM
- GI50 [3]: > 100000 nM
- TGI [3]: > 100 µM
- GI50 [4]: > 100000 nM
- TGI [4]: > 100 µM
- GI50 [5]: > 100 µM
- TGI [5]: > 100 µM
- GI50 [6]: > 100 µM
- TGI [6]: > 100 µM
- GI50 [7]: > 100000 nM
- TGI [7]: > 100 µM
- GI50 [8]: > 100000 nM
- TGI [8]: > 100 µM
- GI50 [9]: 37.1 µM
- TGI [9]: > 100 µM
- GI50 [10]: > 100000 nM
- TGI [10]: > 100 µM

SMILES: O=c1c(Sc2c(O)c3ccccc3c3ccccc3c2=O)c(O)c2ccccc2c2ccccc12
- TGI [1]: > 100 µM
- TGI [2]: 86.4 µM
- TGI [3]: > 100 µM
- TGI [4]: > 100 µM
- TGI [5]: > 100 µM
- TGI [6]: > 100 µM
- TGI [7]: > 100 µM
- TGI [8]: > 100 µM
- TGI [9]: 73.8 µM
- TGI [10]: > 100 µM

SMILES: C=CCN(N=O)C(=O)N(CCCC(NC(C)=O)C(=O)NCc1ccccc1)Cc1ccccc1 (stereo not given)
- TGI [1]: > 100 µM
- TGI [2]: > 100 µM
- TGI [3]: > 100 µM
- TGI [4]: 59.4 µM
- TGI [5]: > 100 µM
- TGI [6]: > 100 µM
- TGI [7]: > 100 µM
- TGI [8]: > 100 µM
- TGI [9]: 58.3 µM
- TGI [10]: > 100 µM

SMILES: CC(=O)NCCSC(=O)c1ccccc1
- TGI [1]: 14.8 µM
- TGI [2]: 0.525 µM
- TGI [3]: 0.0786 µM
- TGI [4]: 2.26 µM
- TGI [5]: 0.475 µM
- TGI [6]: 0.492 µM
- TGI [7]: 1.04 µM
- TGI [8]: 0.242 µM
- TGI [9]: 0.0902 µM
- TGI [10]: > 42.8 µM

SMILES: C=C(C)[C@@H]1CC[C@]2(C(=O)NCCNCCNCCN)CC[C@]3(C)[C@H](CC[C@@H]4[C@@]5(C)CC[C@H](O)C(C)(C)[C@@H]5CC[C@]43C)[C@@H]12
- GI50 [1]: 17.5 µM
- TGI [1]: 36.9 µM
- GI50 [2]: 16.5 µM
- TGI [2]: 33.5 µM
- GI50 [3]: 9290 nM
- TGI [3]: 23 µM
- GI50 [4]: 2810 nM
- TGI [4]: 27.6 µM
- GI50 [5]: 15.8 µM
- TGI [5]: 31.3 µM
- GI50 [6]: 13.5 µM
- TGI [6]: 33.2 µM
- GI50 [7]: 11500 nM
- TGI [7]: 26.1 µM
- GI50 [8]: 11000 nM
- TGI [8]: 28.7 µM
- GI50 [9]: 11.5 µM
- TGI [9]: > 100 µM
- GI50 [10]: 14100 nM
- TGI [10]: 33 µM

SMILES: C=CCNCCCN1C(=O)c2ccc3c4c(ccc(c24)C1=O)C(=O)N(CCCNCC=C)C3=O
- GI50 [1]: 0.775 µM
- TGI [1]: 3.61 µM
- GI50 [2]: 0.372 µM
- TGI [2]: 1.72 µM
- GI50 [3]: 684 nM
- TGI [3]: 1.76 µM
- GI50 [4]: 385 nM
- TGI [4]: 3.55 µM
- GI50 [5]: 0.551 µM
- TGI [5]: 6.14 µM
- GI50 [6]: 0.399 µM
- TGI [6]: 1.78 µM
- GI50 [7]: 413 nM
- TGI [7]: 2.38 µM
- GI50 [8]: 470 nM
- TGI [8]: 1.66 µM
- GI50 [9]: 0.335 µM
- TGI [9]: 1.68 µM
- GI50 [10]: 143 nM
- TGI [10]: 0.307 µM

SMILES: CN1CCN(c2nc(NCCCCNc3ccnc4cc(Cl)ccc34)c3ccccc3n2)CC1
- GI50 [1]: 18 µM
- TGI [1]: 41.2 µM
- GI50 [2]: 5.15 µM
- TGI [2]: 20.2 µM
- GI50 [3]: 1960 nM
- TGI [3]: 3.9 µM
- GI50 [4]: 1800 nM
- TGI [4]: 5.43 µM
- GI50 [5]: 1.85 µM
- TGI [5]: 4.69 µM
- GI50 [6]: 4.73 µM
- TGI [6]: 20 µM
- GI50 [7]: 2900 nM
- TGI [7]: 14 µM
- GI50 [8]: 1830 nM
- TGI [8]: 3.47 µM
- GI50 [9]: 3.08 µM
- TGI [9]: 20 µM
- GI50 [10]: 2140 nM
- TGI [10]: 6.99 µM

SMILES: OCC(O)C(OC1OC(CO)C(O)C(O)C1O)c1nn(-c2ccccc2)c2nc3cc(Cl)c(Cl)cc3cc12 (stereo not given)
- TGI [1]: > 100 µM
- TGI [2]: > 100 µM
- TGI [3]: > 100 µM
- TGI [4]: > 100 µM
- TGI [5]: > 100 µM
- TGI [6]: > 100 µM
- TGI [7]: > 100 µM
- TGI [8]: > 100 µM
- TGI [9]: > 100 µM
- TGI [10]: > 100 µM

SMILES: CCc1cccc2c3c(sc12)C(c1ccc(Cl)cc1)C(C#N)=C(N)O3 (stereo not given)
- GI50 [1]: 1.14 µM
- TGI [1]: 29.8 µM
- GI50 [2]: 0.623 µM
- TGI [2]: 11.1 µM
- GI50 [3]: 351 nM
- TGI [3]: 5.27 µM
- GI50 [4]: 442 nM
- TGI [4]: 7.95 µM
- GI50 [5]: 3.18 µM
- TGI [5]: 15.4 µM
- GI50 [6]: 0.805 µM
- TGI [6]: 12.5 µM
- GI50 [7]: 418 nM
- TGI [7]: 9.59 µM
- GI50 [8]: 472 nM
- TGI [8]: 4.79 µM
- GI50 [9]: 0.59 µM
- TGI [9]: 27.6 µM
- GI50 [10]: 1700 nM
- TGI [10]: 17.3 µM

SMILES: NNC(=O)CCC(=O)Nc1cc(Cl)c(Cl)cc1Cl
- TGI [1]: > 100 µM
- TGI [2]: > 100 µM
- TGI [3]: > 100 µM
- TGI [4]: > 100 µM
- TGI [5]: > 100 µM
- TGI [6]: > 100 µM
- TGI [7]: > 100 µM
- TGI [8]: > 100 µM
- TGI [9]: > 100 µM
- TGI [10]: > 100 µM

SMILES: O=C1/C(=C/c2ccc3c(c2)OCO3)CCC1CN1CCOCC1 (stereo not given)
- TGI [1]: 32.9 µM
- TGI [2]: 25.6 µM
- TGI [3]: 20.5 µM
- TGI [4]: 1.73 µM
- TGI [5]: 21.6 µM
- TGI [6]: 12 µM
- TGI [7]: 8.46 µM
- TGI [8]: 15.3 µM
- TGI [9]: 9.46 µM
- TGI [10]: 18.8 µM
